Assay results published in PMC9604400, “Synthesis, Anticancer and Antitubercular Properties of New Chalcones and Their Nitrogen-Containing Five-Membered Heterocyclic Hybrids Bearing Sulfonamide Moiety” (International Journal of Molecular Sciences, 2022).
Converted amounts (≈) assume the structure as drawn.

Tests used:
NCI-H522 = assay: NCI-60 screen (SRB), non-small cell lung cancer; conditions: Homo sapiens
HL-60(TB) = assay: cells; conditions: Homo sapiens
MCF7 = assay: NCI-60 screen (SRB), breast cancer; conditions: Homo sapiens
UO-31 = assay: NCI-60 screen (SRB), renal cancer; conditions: Homo sapiens
MDA-MB-435 = assay: NCI-60 screen (SRB), melanoma; conditions: Homo sapiens
OVCAR-5 = assay: NCI-60 screen (SRB), ovarian cancer; conditions: Homo sapiens
NCI-H460 = assay: NCI-60 screen (SRB), non-small cell lung cancer; conditions: Homo sapiens
TK-10 = assay: NCI-60 screen (SRB), renal cancer; conditions: Homo sapiens
M14 = assay: NCI-60 screen (SRB), melanoma; conditions: Homo sapiens
[1] = test system: Mycobacterium bovis BCG (ATCC 35734); assay: microbe, parasite or virus in culture; format: cell-based; conditions: Mycobacterium tuberculosis variant bovis BCG, read-out: MIC Against M. bovis BCG
renal cancer cell lines = assay: NCI-60 screen (SRB), renal cancer panel; format: cell-based; conditions: Homo sapiens, single dose 10 μM, read-out: GI (growth inhibition), range over panel
NCI-H226 = assay: NCI-60 screen (SRB), non-small cell lung cancer; conditions: Homo sapiens
COLO 205 = assay: NCI-60 screen (SRB), colon cancer; conditions: Homo sapiens
MALME-3M = assay: NCI-60 screen (SRB), melanoma; conditions: Homo sapiens
UACC-257 = assay: NCI-60 screen (SRB), melanoma; conditions: Homo sapiens
[2] = test system: Mycobacterium tuberculosis H37Rv (ATCC 27294); assay: microbe, parasite or virus in culture; format: cell-based; conditions: Mycobacterium tuberculosis; agar dilution SPOTi; read-out: MIC Against M. tuberculosis H37Rv
HCT-15 = assay: NCI-60 screen (SRB), colon cancer; conditions: Homo sapiens
SF-295 = assay: NCI-60 screen (SRB), CNS cancer; conditions: Homo sapiens
HOP-92 = assay: NCI-60 screen (SRB), non-small cell lung cancer; conditions: Homo sapiens
BT-549 = assay: NCI-60 screen (SRB), breast cancer; conditions: Homo sapiens
[3] = Cytotoxicity on Vero cell line (MTT); format: cell-based, African green monkey; conditions: African green monkey, Vero cells (African green monkey kidney, ATCC CCL-81); MTT, 24 h
Vero cell line = assay: Cytotoxicity on Vero cell line (MTT); format: cell-based, African green monkey; conditions: Vero IC50 / MIC M. tuberculosis H37Rv
MDA-MB-468 = assay: NCI-60 screen (SRB), breast cancer
breast cancer cell lines = assay: NCI-60 screen (SRB), breast cancer panel; format: cell-based; conditions: Homo sapiens, single dose 10 μM, read-out: GI (growth inhibition), range over panel
SW-620 = assay: NCI-60 screen (SRB), colon cancer; conditions: Homo sapiens
SR = assay: NCI-60 screen (SRB), leukemia; conditions: Homo sapiens
SK-MEL-5 = assay: NCI-60 screen (SRB), melanoma; conditions: Homo sapiens
MDA-MB-231/ATCC = assay: NCI-60 screen (SRB), breast cancer; conditions: Homo sapiens

## COc1cc(OC)c(S(N)(=O)=O)cc1C(=O)C=Cc1ccccc1 [Compound 17a, 5-Cinnamoyl-2,4-dimethoxybenzenesulfonamide]
NCI-H522; NCI-H522
  IC50: 6.56 µM
NCI-H522; NCI-H522, read-out: LC50
  CC50: 49.7 µM
HL-60(TB); HL-60
  IC50: 2.27 µM
HL-60(TB); HL-60, read-out: LC50
  CC50: > 100 µM
MCF7; MCF7
  IC50: 0.97 µM
MCF7; MCF7, read-out: LC50
  CC50: 62.5 µM
UO-31; UO-31
  IC50: 4.76 µM
UO-31; UO-31, read-out: LC50
  CC50: 43.5 µM
MDA-MB-435; MDA-MB-435
  IC50: 2.12 µM
MDA-MB-435; MDA-MB-435, read-out: LC50
  CC50: 35.9 µM
OVCAR-5; OVCAR-5
  IC50: 13.2 µM
OVCAR-5; OVCAR-5, read-out: LC50
  CC50: 53.7 µM
NCI-H460; NCI-H460
  IC50: 1.95 µM
NCI-H460; NCI-H460, read-out: LC50
  CC50: 51.2 µM
TK-10; TK-10
  IC50: 12.9 µM
TK-10; TK-10, read-out: LC50
  CC50: 51.5 µM
M14; M14
  IC50: 7.51 µM
M14; M14, read-out: LC50
  CC50: 60.5 µM
[1]
  MIC: > 29 µM
Renal cancer cell lines
  inhibition at 10 µM: 66.2 to 100%
NCI-H226; NCI-H226
  IC50: 10 µM
NCI-H226; NCI-H226, read-out: LC50
  CC50: 69.2 µM
COLO 205; COLO 205
  IC50: 10.6 µM
COLO 205; COLO 205, read-out: LC50
  CC50: 54.2 µM
MALME-3M
  IC50: 13.9 µM
MALME-3M; read-out: LC50
  CC50: 61.9 µM
UACC-257; UACC-257
  IC50: 9.96 µM
UACC-257; UACC-257, read-out: LC50
  CC50: 47.8 µM
[2]
  MIC: 29 µM (≈ 10.1 µg/mL)
HCT-15; HCT-15
  IC50: 3.55 µM
HCT-15; HCT-15, read-out: LC50
  CC50: 57.5 µM
SF-295; SF-295
  IC50: 15.7 µM
SF-295; SF-295, read-out: LC50
  CC50: 58.2 µM
HOP-92; HOP-92
  IC50: 2.06 µM
HOP-92; HOP-92, read-out: LC50
  CC50: 37.1 µM
BT-549; BT-549
  IC50: 2.65 µM
BT-549; BT-549, read-out: LC50
  CC50: 40.6 µM
[3]
  IC50 at 24 h: 1.06 ± 1.21 µM
Vero cell line
  Selectivity Index (SI) (SI = IC50/MIC): 0.04
MDA-MB-468; Homo sapiens, MDA-MB-468
  IC50: 1.2 µM
MDA-MB-468; Homo sapiens, MDA-MB-468, read-out: LC50
  CC50: 43.9 µM
MDA-MB-468; MDA-MB-468, single dose 10 μM
  lethality: 43.37%
Breast cancer cell lines
  inhibition at 10 µM: 73.5 to 100%
SW-620; SW-620
  IC50: 2.68 µM
SW-620; SW-620, read-out: LC50
  CC50: 48.5 µM
SR
  IC50: 1.73 µM
SR; read-out: LC50
  CC50: > 100 µM
SK-MEL-5; SK-MEL-5
  IC50: 17.6 µM
SK-MEL-5; SK-MEL-5, read-out: LC50
  CC50: 59.7 µM
MDA-MB-231/ATCC; MDA-MB-231
  IC50: 11.9 µM
MDA-MB-231/ATCC; MDA-MB-231, read-out: LC50
  CC50: 61.6 µM
